The values below come from US20230242538A1, “PanK Modulators and Methods Using Same” (YALE UNIVERSITY, priority 2020, published 2023).

Molecules are shown by their SMILES. Like-named read-outs stand apart in the source and are kept apart here.

In test [1] the target is A. fumigatus enzyme (AfPanK) (Aspergillus fumigatus, UniProt Q4WWV3). Briefly: Inhibition of A. fumigatus pantothenate kinase (AfPanK). It is filed as biochemical. The following applies: read-out: A. fum. IC50.
Test [2] has as its system S. cerevisiae monster. Briefly: Growth inhibition of S. cerevisiae monster. It is filed as cell-based. As to conditions: Saccharomyces cerevisiae; 200 μM of compound (μg/mL equivalent in brackets), VFM medium with no pantothenic acid, 24 h, 10^5 cells/ml. How it is done: In Table 1, “mixed” indicates a compound that is an activator at lower concentrations and is an inhibitor at higher concentrations. % growth inhibition S. cerevisiae monster was determined at 200 μM of compound in VFM medium with no pantothenic acid at 24 h (10^5 cells/ml).

In test [3] the target is hPanK3 (Homo sapiens, UniProt Q9H999). In words: Modulation of human PanK (hPanK3). The test is classed as biochemical. The following applies: for IC50: Table 1; for AC50: Table 2, activation. How it is done:
(§1) Compounds of interest were assayed for their activity as inhibitors of fungal pantothenate kinase (PanK), modulators of human PanK, and general toxicity against HeLa cells.

Test [4] has as its system HeLa cells. In words: General toxicity against HeLa cells, 72 hr. The test is classed as cell-based. As to conditions: for EC50: Homo sapiens, HeLa. How it is done:
as §1

Test [5] has as its target T1, Cab1 (Saccharomyces cerevisiae, UniProt Q04430).
T1 construct: His6; made in house
In words: Inhibition of Cab1 pantothenate kinase. It is filed as biochemical. The protocol: The activity of recombinant His6-tagged Cab1p and cab1^G351S was determined in vitro using the Kinase-Glo Plus Luminescent Kinase (Kinase-Glo) assay as described in Chiu, et al., 2017, Scientific Reports 7:14234. The assay measures the amount of ATP remaining in solution following the kinase reaction. Briefly, kinase buffer consisted of 100 mM Tris-HCl pH 7.4, 10 mM MgCl2, 100 μM pantothenate (PA), 100 μM ATP, and 0.5 mg/mL γ-globulin. Kinase reactions were initiated with the addition of 500 ng of purified Cab1p or Cab1^G351S in elution buffer (10 mM Tris pH 7.4, NaCl 10 mM, 500 mM imidazole). Heat-inactivated (80° C. for 20 min) Cab1p or Cab were used as controls. Samples were incubated at room temperature for 1 hour. At the end of the incubation, an equal volume (10 μL) of Kinase-Glo reagent was added to each sample, the plates were further incubated for 5 min and luminescence was recorded using BioTek SynergyMx microplate reader (excitation wavelength 485; emission wavelength 528).
as §1

[6] abbreviates: Table 1, read-out: EC50 HeLa Tox 72 hr.
Setting [7] is: Table 2, read-out: EC50 HeLa Tox 72 hr.
The mark [8] stands for this setting: read-out: A cer. Cab1 IC50 μM, Table 2.

Chain of hPanK3 (Q9H999 whole entry): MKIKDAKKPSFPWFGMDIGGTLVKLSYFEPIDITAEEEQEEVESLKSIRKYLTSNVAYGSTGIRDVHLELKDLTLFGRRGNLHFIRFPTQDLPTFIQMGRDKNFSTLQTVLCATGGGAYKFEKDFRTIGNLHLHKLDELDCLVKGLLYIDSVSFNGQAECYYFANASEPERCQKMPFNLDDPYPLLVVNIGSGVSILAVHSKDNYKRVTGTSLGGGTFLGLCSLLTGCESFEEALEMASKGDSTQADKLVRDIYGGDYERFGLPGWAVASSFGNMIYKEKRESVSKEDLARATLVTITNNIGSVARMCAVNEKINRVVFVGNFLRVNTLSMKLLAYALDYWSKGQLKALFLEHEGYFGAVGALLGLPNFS
Chain of A. fumigatus enzyme (AfPanK) (Q4WWV3 entry or part of it): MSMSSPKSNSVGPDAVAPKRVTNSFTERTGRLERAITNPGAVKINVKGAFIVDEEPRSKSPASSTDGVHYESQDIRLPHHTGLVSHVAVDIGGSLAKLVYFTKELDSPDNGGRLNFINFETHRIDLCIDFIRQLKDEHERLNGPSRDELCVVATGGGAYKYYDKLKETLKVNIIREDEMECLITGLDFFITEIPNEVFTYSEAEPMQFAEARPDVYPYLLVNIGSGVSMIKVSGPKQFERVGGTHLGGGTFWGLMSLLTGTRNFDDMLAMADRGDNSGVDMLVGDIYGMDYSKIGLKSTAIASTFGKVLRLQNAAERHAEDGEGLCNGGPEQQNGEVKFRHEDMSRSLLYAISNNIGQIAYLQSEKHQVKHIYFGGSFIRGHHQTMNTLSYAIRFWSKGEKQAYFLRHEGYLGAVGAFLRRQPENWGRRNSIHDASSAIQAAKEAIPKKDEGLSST
T1 sequence (Q04430 whole entry): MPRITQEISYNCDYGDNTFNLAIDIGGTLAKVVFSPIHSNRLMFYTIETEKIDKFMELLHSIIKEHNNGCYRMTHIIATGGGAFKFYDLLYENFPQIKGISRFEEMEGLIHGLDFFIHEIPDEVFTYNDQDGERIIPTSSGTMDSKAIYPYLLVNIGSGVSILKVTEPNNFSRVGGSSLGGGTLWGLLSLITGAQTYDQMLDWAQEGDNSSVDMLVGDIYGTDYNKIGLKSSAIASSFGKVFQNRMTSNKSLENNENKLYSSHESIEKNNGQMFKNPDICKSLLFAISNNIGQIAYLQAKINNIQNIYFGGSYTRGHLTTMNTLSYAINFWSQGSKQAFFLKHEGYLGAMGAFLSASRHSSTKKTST

The term IC50 denotes the concentration at which inhibition is half-maximal. A word on the inhibition: it is the change of the read-out against control, counted positive when it falls. As for `CC(C)(C)c1ccc(CNc2nc3nc(CN4CCOCC4)cc(OCC(N)=O)n3n2)cc1` [Compound A11], the IC50 in test [1] (Table 1) was determined as 62 µM. The inhibition at 200 µM in test [2] worked out at 77%.
In general, EC50 refers to the concentration at which the effect is half-maximal. Turning to `Cc1cc(C(=O)O)n2nc(NCc3ccc(C(C)(C)C)cc3)nc2n1` [Compound A3], the IC50 was 0.086 µM in test [1] (Table 1) and over 5 µM in test [3]. In test [2], the inhibition at 200 µM came out at 87%. Besides, the EC50 in test [4] (setting [6]) was over 100 µM.
Usually AC50 stands for the midpoint of the concentration-response curve, whichever way the signal moves. High values mean activity only at high concentration, low ones activity at low concentration. As for `Cc1cc(=O)n2nc(NCc3ccc(C(C)C)cc3)nc2[nH]1` [Compound B2, 2-((4-isopropylbenzyl)amino)-5-methyl-[1,2,4]triazolo[1,5-a]pyrimidin-7(4H)-one], the IC50 is 0.27 µM in test [1] (Table 2) and over 100 µM in test [5]. Moreover, the concentration at half-maximal activity (AC50) in test [3] was 0.0053 µM. Moreover, the EC50 in test [4] (setting [7]) is over 100 µM.
On to `CC(C)c1ccc(CNc2nc3[nH]c(CN4CCCC4)cc(=O)n3n2)cc1` [Compound B4, 2-((4-isopropylbenzyl)amino)-5-(pyrrolidin-1-ylmethyl)-[1,2,4]triazolo[1,5-a]pyrimidin-7(4H)-one], for which the IC50 is 11 µM in test [1] (Table 2) and over 100 µM in test [5]. In test [3], the AC50 was found to be 0.032 µM. For the same compound, the “EC50 HeLa Tox 72 hr μM” value in test [4] (Table 2) is listed as “Inactive”.
For the compound `Cc1cc(C(=O)Nc2ccccn2)n2nc(NCc3ccc(C(C)(C)C)cc3)nc2n1` [Compound A7], the IC50 in test [1] (Table 1) was over 50 µM; in test [3], over 100 µM. In test [2], the inhibition at 200 µM came to 79%.
Consider `Cc1cc(C(=O)NCC(N)=O)n2nc(NCc3ccc(C(C)(C)C)cc3)nc2n1` [Compound A4], for which the half-inhibitory concentration (IC50) is 2.4 µM in test [1] (Table 1) and over 100 µM in test [3]. The inhibition at 200 µM in test [2] was 62%.
As to `CC(C)(C)c1ccc(CNc2nc3nc(CN4CCOCC4)cc(OCC(=O)O)n3n2)cc1` [Compound A14], the IC50 in test [1] (Table 1) is 78 µM. Also, in test [2], the inhibition at 200 µM amounted to 49%.
Turning to `CN1CCN(Cc2cc(=O)n3nc(-c4ccc(C(C)(C)C)cc4)nc3[nH]2)CC1` [Compound A5, 2-(4-(tert-butyl)phenyl)-5-((4-methylpiperazin-1-yl)methyl)-[1,2,4]triazolo[1,5-a]pyrimidin-7(4H)-one], the IC50 is 5.5 µM in test [1] (Table 1) and over 100 µM in test [3]. In test [2], the inhibition at 200 µM came to 86%. In addition, the “EC50 HeLa Tox 72 hr μM” value in test [4] (Table 1) is on record as “Inactive”.
With `CC(C)(C)c1ccc(CNc2nc3[nH]c(CN4CCCCC4)cc(=O)n3n2)cc1` [Compound B9], the IC50 amounted to 1.8 µM in test [1] (Table 2) and 30 µM in test [5] (setting [8]). Moreover, half-maximal activity in test [3] (AC50) was put at 0.27 µM. Further, the EC50 in test [4] (setting [7]) is over 100 µM.
Take `CN(C)c1cc(CN2CCOCC2)nc2nc(NCc3ccc(C(C)(C)C)cc3)nn12` [Compound B7]: the IC50 in test [1] (Table 2) was 44 µM; in test [5] (setting [8]) it was over 100 µM. Besides, in test [3], the activity was half-maximal at 0.076 µM (AC50). Besides, the EC50 in test [4] (setting [7]) was over 100 µM.
Consider `Cc1cc(C(=O)NCC(=O)O)n2nc(NCc3ccc(C(C)(C)C)cc3)nc2n1` [Compound A18], for which the values for the IC50 in test [1] (Table 1) and in test [3] were about 100 µM and over 100 µM, respectively. In addition, in test [2], the inhibition at 200 µM is 29%.
Regarding `Cc1cc(C(=O)NCCO)n2nc(NCc3ccc(C(C)(C)C)cc3)nc2n1` [Compound A9], the IC50 is over 50 µM in test [1] (Table 1) and over 100 µM in test [3]. In addition, in test [2], the inhibition at 200 µM amounted to 102%.
Regarding `CC(C)(C)c1ccc(CNc2nc3[nH]c(CN4CCOCC4)cc(=O)n3n2)cc1` [Compound B6], the IC50 in test [1] (Table 2) is 0.26 µM; in test [5] (setting [8]), 0.19 µM. This compound displayed an AC50 in test [3] of 0.058 µM. For the same compound, the “EC50 HeLa Tox 72 hr μM” value in test [4] (Table 2) is “Inactive”.
Consider `CC(C)NCc1cc(=O)n2nc(NCc3ccc(C(C)C)cc3)nc2[nH]1` [Compound A10, 5-((isopropylamino)methyl)-2-((4-isopropylbenzyl)amino)-[1,2,4]triazolo[1,5-a]pyrimidin-7(4H)-one], for which, in test [1] (Table 1), the IC50 came out at 53 µM. Also, in test [2], the inhibition at 200 µM is 13%.
As to `CN1CCN(Cc2cc(=O)n3nc(NCc4ccc(C(C)(C)C)cc4)nc3[nH]2)CC1` [Compound B8], the IC50 came to 0.89 µM in test [1] (Table 2) and 0.55 µM in test [5] (setting [8]). Moreover, the activity in test [3] was half-maximal at 0.16 µM (AC50). For the same compound, the “EC50 HeLa Tox 72 hr μM” value in test [4] (Table 2) is “Inactive”.
For the compound `COC(=O)CNC(=O)c1cc(C)nc2nc(NCc3ccc(C(C)(C)C)cc3)nn12` [Compound A8], the results for the IC50 in test [1] (Table 1) and in test [3] were over 50 µM and over 100 µM, respectively. Besides, the inhibition at 200 µM in test [2] turned out to be 67%.
For the compound `CC(C)(C)c1ccc(CNc2nc3nc(CN4CCOCC4)cc(N)n3n2)cc1` [Compound A13], the IC50 in test [1] (Table 1) was 71 µM. In addition, the inhibition at 200 µM in test [2] amounted to 25%. In addition, the EC50 in test [4] (setting [6]) was over 100 µM.
Take `Cc1ccccc1-c1nc2[nH]c(CNc3ccccc3)cc(=O)n2n1` [Compound B3, 5-((phenylamino)methyl)-2-(o-tolyl)-[1,2,4]triazolo[1,5-a]pyrimidin-7(4H)-one]: the IC50 was 10 µM in test [1] (Table 2) and over 100 µM in test [5]. This compound also registered an AC50 in test [3] of 0.024 µM. Further, in test [4] (Table 2), the “EC50 HeLa Tox 72 hr μM” value is on record as “Inactive”.
On to `CC(C)(C)c1ccc(CNc2nc3nc(CN4CCOCC4)cc(Cl)n3n2)cc1` [Compound A16], for which the IC50 was about 100 µM in test [1] (Table 1) and over 100 µM in test [3]. In test [2], the inhibition at 200 µM turned out to be 80%. Further, the EC50 in test [4] (setting [6]) was found to be 2.3 µM.
For the compound `Cc1cc(C(=O)NCc2cccnc2)n2nc(NCc3ccc(C(C)(C)C)cc3)nc2n1` [Compound A17], the IC50 in test [1] (Table 1) is about 100 µM; in test [3] it was over 100 µM. In addition, the inhibition at 200 µM in test [2] turned out to be 63%.
For `CC(C)(C)c1ccc(CNc2nc3nc(CN4CCOCC4)cc(OCCO)n3n2)cc1` [Compound A12], the IC50 in test [1] (Table 1) was found to be 68 µM. The inhibition at 200 µM in test [2] stood at 94%.
Take `CC(C)(C)OC(=O)N1CCN(Cc2cc(=O)n3nc(NCc4ccc(C(C)(C)C)cc4)nc3[nH]2)CC1` [Compound A2]: the IC50 in test [1] (Table 1) came to 0.083 µM. In addition, the inhibition at 200 µM in test [2] is 87%. Besides, the “EC50 HeLa Tox 72 hr μM” value in test [4] (Table 1) is “Inactive”.
For `CNc1cc(CN2CCOCC2)nc2nc(NCc3ccc(C(C)(C)C)cc3)nn12` [Compound B5], the IC50 came out at 28 µM in test [1] (Table 2) and 9.4 µM in test [5] (setting [8]). In test [3], this compound showed an AC50 of 0.038 µM. Further, the EC50 in test [4] (setting [7]) was over 100 µM.
Regarding `COc1cc(CN2CCOCC2)nc2nc(NCc3ccc(C(C)(C)C)cc3)nn12` [Compound A6], the IC50 in test [1] (Table 1) was 31 µM; in test [3] it was over 100 µM. Besides, the inhibition at 200 µM in test [2] was 34%. Further, the EC50 in test [4] (setting [6]) was over 100 µM.
Regarding `CC(=O)N1CCN(Cc2cc(=O)n3nc(NCc4ccc(C(C)(C)C)cc4)nc3[nH]2)CC1` [Compound A1], in test [1] (Table 1), the IC50 came out at 0.036 µM. Also, in test [2], the inhibition at 200 µM was found to be 98%. Moreover, the “EC50 HeLa Tox 72 hr μM” value in test [4] (Table 1) is recorded as “Inactive”.
In the case of `CCOc1cc(CN2CCOCC2)nc2nc(NCc3ccc(C(C)(C)C)cc3)nn12` [Compound A15], the IC50 in test [1] (Table 1) turned out to be 98 µM. The inhibition at 200 µM in test [2] was 37%.
`CC(C)c1ccc(CNc2nc3[nH]c(CN4CCOCC4)cc(=O)n3n2)cc1` [Compound B1, 2-((4-isopropylbenzyl)amino)-5-(morpholinomethyl)-[1,2,4]triazolo[1,5-a]pyrimidin-7(4H)-one]: the figures for the IC50 in test [1] (Table 2) and in test [5] were 0.25 µM and 0.43 µM, respectively. In test [3], this compound returned an AC50 of 0.0017 µM. In addition, the “EC50 HeLa Tox 72 hr μM” value in test [4] (Table 2) is given as “Inactive”.
